Measured values reported in patent publication US20080039438A1, “1B-Methylcarbapenem Derivative and Process for the Preparation Thereof” (Korea Institute of Science and Technology, priority 2004, published 2008).
≈ marks a conversion by molar mass, not a printed value.

Key:
Format in all cases: cell-based
Streptococcus agalactiae = test: MIC against clinically isolated aerobic Gram-positive strains; details: 15 strains
Escherichia coli TEM = test: MIC against standard strains (agar dilution); details: standard strain Escherichia coli TEM, 37° C., 18 to 20 hours, read-out: Minimum Inhibitory Concentration (MIC)
Escherichia coli 078 = test: MIC against standard strains (agar dilution); details: standard strain Escherichia coli 078, 37° C., 18 to 20 hours, read-out: Minimum Inhibitory Concentration (MIC)
Enterobacter cloacae P99 = test: MIC against standard strains (agar dilution); details: standard strain Enterobacter cloacae P99, 37° C., 18 to 20 hours, read-out: Minimum Inhibitory Concentration (MIC)
Acinetobacter baumannii = test: MIC against clinically isolated aerobic Gram-negative strains; details: 30 strains
Salmonella typhimurium = test: MIC against standard strains (agar dilution); details: Salmonella enterica, standard strain Salmonella typhimurium, 37° C., 18 to 20 hours, read-out: Minimum Inhibitory Concentration (MIC)
Citrobacter freundii = test: MIC against clinically isolated aerobic Gram-negative strains; details: 14 strains
Moraxella catarrhalis = test: as above; details: 24 strains
Morganella morganii = test: as above; details: 15 strains
Bacteroides spp. = test: MIC against clinically isolated anaerobic Gram-negative strains; details: 11 strains
Staphylococcus coagulase = test: MIC against clinically isolated aerobic Gram-positive strains; details: for MIC50 / MIC90: Staphylococcus; for MIC Range: clinically isolated Staphylococcus coagulase, 22 strains
Clostridium perfringens = test: microbe, parasite or virus in culture; details: for MIC50 / MIC90: Clostridium perfringens; for MIC Range: clinically isolated anaerobic Clostridium perfringens, 13 strains
Klebsiella oxytoca = test: MIC against clinically isolated aerobic Gram-negative strains; details: 15 strains
[1] = system: Bacteroides thetaiotaomicron; test: MIC against clinically isolated anaerobic Gram-negative strains; details: for MIC50 / MIC90: Bacteroides thetaiotaomicron; for MIC Range: clinically isolated anaerobic Bacteroides thetaiotaomicron, 15 strains
Escherichia coli 1507E = test: MIC against standard strains (agar dilution); details: standard strain Escherichia coli 1507E, 37° C., 18 to 20 hours, read-out: Minimum Inhibitory Concentration (MIC)
Clostridium difficile = test: MIC against clinically isolated anaerobic Gram-positive strains; details: 15 strains; for MIC50 / MIC90: Clostridioides difficile
Experimental: The in vitro antibacterial activities of the sodium 3-carboxylate compound of the present invention prepared in the above Example were measured against standard strains (Table 1), clinically isolated aerobic Gram-positive strains (Table 2), clinically isolated aerobic Gram-negative strains (Table 3), clinically isolated anaerobic Gram-positive strains (Table 4) and clinically isolated anaerobic Gram-negative strains (Table 5) using Gram-positive bacteria such as Streptococcus and Staphylococcus, Gram-negative bacteria such as Escherichia, Salmonella, Krebsiella and Enterobacter. Imipenem (IPM), meropenem (MPM) and ertapenem (EPM) were used as control groups.
The results are shown in Tables 1 to 5, and MIC50 and MIC90 represent the concentrations at which the test strain's growth was inhibited to the extents of 50% and 90%, respectively.

Streptococcus pneumoniae = test: MIC against clinically isolated aerobic Gram-positive strains; details: 22 strains
Peptostreptococcus spp. = test: MIC against clinically isolated anaerobic Gram-positive strains; details: 27 strains
[2] = system: Staphylococcus aureus 285; test: MIC against standard strains (agar dilution); details: standard strain Staphylococcus aureus 285, 37° C., 18 to 20 hours, read-out: Minimum Inhibitory Concentration (MIC)
[3] = system: Staphylococcus aureus 503; test: MIC against standard strains (agar dilution); details: standard strain Staphylococcus aureus 503, 37° C., 18 to 20 hours, read-out: Minimum Inhibitory Concentration (MIC)
Klebsiella pneumoniae = test: MIC against clinically isolated aerobic Gram-negative strains; details: 30 strains
[4] = system: Streptococcus pyogenes 77A; test: MIC against standard strains (agar dilution); details: standard strain Streptococcus pyogenes 77A, 37° C., 18 to 20 hours, read-out: Minimum Inhibitory Concentration (MIC)
Bacteroides fragilis = test: MIC against clinically isolated anaerobic Gram-negative strains; details: 34 strains
Escherichia coli DC 2 = test: MIC against standard strains (agar dilution); details: Escherichia coli, DC2, read-out: Minimum Inhibitory Concentration (MIC)
Proteus vulgaris = test: MIC against clinically isolated aerobic Gram-negative strains; details: 15 strains
[5] = system: Enterobacter cloacae 1321E; test: MIC against standard strains (agar dilution); details: standard strain Enterobacter cloacae 1321E, 37° C., 18 to 20 hours, read-out: Minimum Inhibitory Concentration (MIC)
Haemophilus influenzae = test: MIC against clinically isolated aerobic Gram-negative strains; details: 24 strains
Proteus mirabilis = test: as above; details: 15 strains

C[C@@H](O)[C@H]1C(=O)N2C(C(=O)O)=C(SCCN=CN)C[C@H]12 [IPM, Imipenem]
MIC50 (Streptococcus agalactiae): 0.008 µg/mL (≈ 0.0267 µM) | MIC90 (Streptococcus agalactiae): 0.015 µg/mL (≈ 0.0501 µM) | MIC Range (Streptococcus agalactiae): 0.008 to 0.015 µg/mL | MIC (Escherichia coli TEM): 0.098 µg/mL (≈ 0.327 µM) | MIC (Escherichia coli 078): 0.098 µg/mL (≈ 0.327 µM) | MIC (Enterobacter cloacae P99): 0.098 µg/mL (≈ 0.327 µM) | MIC50 (Acinetobacter baumannii): 1 µg/mL (≈ 3.34 µM) | MIC90 (Acinetobacter baumannii): 8 µg/mL (≈ 26.7 µM) | MIC Range (Acinetobacter baumannii): 0.25 to 32 µg/mL | MIC (Salmonella typhimurium): 0.781 µg/mL (≈ 2.61 µM) | MIC50 (Citrobacter freundii): 0.12 µg/mL (≈ 0.401 µM) | MIC90 (Citrobacter freundii): 0.5 µg/mL (≈ 1.67 µM) | MIC Range (Citrobacter freundii): 0.06 to 0.5 µg/mL | MIC50 (Moraxella catarrhalis): 0.06 µg/mL (≈ 0.2 µM) | MIC90 (Moraxella catarrhalis): 0.06 µg/mL (≈ 0.2 µM) | MIC Range (Moraxella catarrhalis): 0.008 to 0.25 µg/mL | MIC50 (Morganella morganii): 1 µg/mL (≈ 3.34 µM) | MIC90 (Morganella morganii): 2 µg/mL (≈ 6.68 µM) | MIC Range (Morganella morganii): 0.5 to 2 µg/mL | MIC50 (Bacteroides spp.): 0.5 µg/mL (≈ 1.67 µM) | MIC90 (Bacteroides spp.): 1 µg/mL (≈ 3.34 µM) | MIC Range (Bacteroides spp.): 0.25 to 2 µg/mL | MIC50 (Staphylococcus coagulase): 0.015 µg/mL (≈ 0.0501 µM) | MIC90 (Staphylococcus coagulase): 0.015 µg/mL (≈ 0.0501 µM) | MIC Range (Staphylococcus coagulase): 0.008 to 0.03 µg/mL | MIC50 (Clostridium perfringens): 0.06 µg/mL (≈ 0.2 µM) | MIC90 (Clostridium perfringens): 0.12 µg/mL (≈ 0.401 µM) | MIC Range (Clostridium perfringens): 0.06 to 0.12 µg/mL | MIC50 (Klebsiella oxytoca): 0.12 µg/mL (≈ 0.401 µM) | MIC90 (Klebsiella oxytoca): 0.5 µg/mL (≈ 1.67 µM) | MIC Range (Klebsiella oxytoca): 0.06 to 0.5 µg/mL | MIC50 [1]: 0.5 µg/mL (≈ 1.67 µM) | MIC90 [1]: 4 µg/mL (≈ 13.4 µM) | MIC Range [1]: 0.12 to 16 µg/mL | MIC (Escherichia coli 1507E): 0.098 µg/mL (≈ 0.327 µM) | MIC Range (Clostridium difficile): 4 to 16 µg/mL | MIC50 (Clostridium difficile): 8 µg/mL (≈ 26.7 µM) | MIC90 (Clostridium difficile): 8 µg/mL (≈ 26.7 µM) | MIC50 (Streptococcus pneumoniae): 0.12 µg/mL (≈ 0.401 µM) | MIC90 (Streptococcus pneumoniae): 0.25 µg/mL (≈ 0.835 µM) | MIC Range (Streptococcus pneumoniae): 0.008 to 0.5 µg/mL | MIC50 (Peptostreptococcus spp.): 0.06 µg/mL (≈ 0.2 µM) | MIC90 (Peptostreptococcus spp.): 2 µg/mL (≈ 6.68 µM) | MIC Range (Peptostreptococcus spp.): 0.06 to 2 µg/mL | MIC [2]: 0.013 µg/mL (≈ 0.0434 µM) | MIC [3]: 0.007 µg/mL (≈ 0.0234 µM) | MIC50 (Klebsiella pneumoniae): 0.12 µg/mL (≈ 0.401 µM) | MIC90 (Klebsiella pneumoniae): 0.5 µg/mL (≈ 1.67 µM) | MIC Range (Klebsiella pneumoniae): 0.06 to 1 µg/mL | MIC [4]: < 0.002 µg/mL | MIC50 (Bacteroides fragilis): 0.25 µg/mL (≈ 0.835 µM) | MIC90 (Bacteroides fragilis): 0.5 µg/mL (≈ 1.67 µM) | MIC Range (Bacteroides fragilis): 0.06 to 2 µg/mL | MIC (Escherichia coli DC 2): 0.195 µg/mL (≈ 0.651 µM) | MIC50 (Proteus vulgaris): 1 µg/mL (≈ 3.34 µM) | MIC90 (Proteus vulgaris): 2 µg/mL (≈ 6.68 µM) | MIC Range (Proteus vulgaris): 0.25 to 2 µg/mL | MIC [5]: 0.098 µg/mL (≈ 0.327 µM) | MIC50 (Haemophilus influenzae): 1 µg/mL (≈ 3.34 µM) | MIC90 (Haemophilus influenzae): 4 µg/mL (≈ 13.4 µM) | MIC Range (Haemophilus influenzae): 0.25 to 8 µg/mL | MIC50 (Proteus mirabilis): 2 µg/mL (≈ 6.68 µM) | MIC90 (Proteus mirabilis): 2 µg/mL (≈ 6.68 µM) | MIC Range (Proteus mirabilis): 0.25 to 4 µg/mL

C[C@@H](O)[C@H]1C(=O)N2C(C(=O)O)=C(S[C@@H]3CN[C@H](C(=O)N(C)C)C3)[C@H](C)[C@H]12 [MPM, meropenem]
MIC50 (Streptococcus agalactiae): 0.03 µg/mL (≈ 0.0782 µM) | MIC90 (Streptococcus agalactiae): 0.03 µg/mL (≈ 0.0782 µM) | MIC Range (Streptococcus agalactiae): 0.03 µg/mL (≈ 0.0782 µM) | MIC (Escherichia coli TEM): 0.025 µg/mL (≈ 0.0652 µM) | MIC (Escherichia coli 078): 0.025 µg/mL (≈ 0.0652 µM) | MIC (Enterobacter cloacae P99): 0.049 µg/mL (≈ 0.128 µM) | MIC50 (Acinetobacter baumannii): 1 µg/mL (≈ 2.61 µM) | MIC90 (Acinetobacter baumannii): 8 µg/mL (≈ 20.9 µM) | MIC Range (Acinetobacter baumannii): 0.25 to 64 µg/mL | MIC (Salmonella typhimurium): 0.049 µg/mL (≈ 0.128 µM) | MIC50 (Citrobacter freundii): 0.015 µg/mL (≈ 0.0391 µM) | MIC90 (Citrobacter freundii): 0.03 µg/mL (≈ 0.0782 µM) | MIC Range (Citrobacter freundii): 0.015 to 0.06 µg/mL | MIC50 (Moraxella catarrhalis): 0.008 µg/mL (≈ 0.0209 µM) | MIC90 (Moraxella catarrhalis): 0.008 µg/mL (≈ 0.0209 µM) | MIC Range (Moraxella catarrhalis): 0.008 to 0.03 µg/mL | MIC50 (Morganella morganii): 0.06 µg/mL (≈ 0.156 µM) | MIC90 (Morganella morganii): 0.12 µg/mL (≈ 0.313 µM) | MIC Range (Morganella morganii): 0.03 to 0.12 µg/mL | MIC50 (Bacteroides spp.): 0.5 µg/mL (≈ 1.3 µM) | MIC90 (Bacteroides spp.): 0.5 µg/mL (≈ 1.3 µM) | MIC Range (Bacteroides spp.): 0.12 to 0.5 µg/mL | MIC50 (Staphylococcus coagulase): 0.06 µg/mL (≈ 0.156 µM) | MIC90 (Staphylococcus coagulase): 0.12 µg/mL (≈ 0.313 µM) | MIC Range (Staphylococcus coagulase): 0.03 to 0.5 µg/mL | MIC50 (Clostridium perfringens): < 0.06 µg/mL | MIC90 (Clostridium perfringens): < 0.06 µg/mL | MIC Range (Clostridium perfringens): <0.06 µg/mL | MIC50 (Klebsiella oxytoca): 0.03 µg/mL (≈ 0.0782 µM) | MIC90 (Klebsiella oxytoca): 0.03 µg/mL (≈ 0.0782 µM) | MIC Range (Klebsiella oxytoca): 0.015 to 0.06 µg/mL | MIC50 [1]: 0.25 µg/mL (≈ 0.652 µM) | MIC90 [1]: 0.5 µg/mL (≈ 1.3 µM) | MIC Range [1]: 0.25 to 2 µg/mL | MIC (Escherichia coli 1507E): 0.025 µg/mL (≈ 0.0652 µM) | MIC Range (Clostridium difficile): 1 to 2 µg/mL | MIC50 (Clostridium difficile): 1 µg/mL (≈ 2.61 µM) | MIC90 (Clostridium difficile): 2 µg/mL (≈ 5.22 µM) | MIC50 (Streptococcus pneumoniae): 0.5 µg/mL (≈ 1.3 µM) | MIC90 (Streptococcus pneumoniae): 0.5 µg/mL (≈ 1.3 µM) | MIC Range (Streptococcus pneumoniae): 0.008 to 0.5 µg/mL | MIC50 (Peptostreptococcus spp.): 0.06 µg/mL (≈ 0.156 µM) | MIC90 (Peptostreptococcus spp.): 4 µg/mL (≈ 10.4 µM) | MIC Range (Peptostreptococcus spp.): 0.06 to 4 µg/mL | MIC [2]: 0.195 µg/mL (≈ 0.509 µM) | MIC [3]: 0.098 µg/mL (≈ 0.256 µM) | MIC50 (Klebsiella pneumoniae): 0.03 µg/mL (≈ 0.0782 µM) | MIC90 (Klebsiella pneumoniae): 0.06 µg/mL (≈ 0.156 µM) | MIC Range (Klebsiella pneumoniae): 0.015 to 0.06 µg/mL | MIC [4]: 0.007 µg/mL (≈ 0.0183 µM) | MIC50 (Bacteroides fragilis): 0.12 µg/mL (≈ 0.313 µM) | MIC90 (Bacteroides fragilis): 0.25 µg/mL (≈ 0.652 µM) | MIC Range (Bacteroides fragilis): 0.12 to 4 µg/mL | MIC (Escherichia coli DC 2): 0.025 µg/mL (≈ 0.0652 µM) | MIC50 (Proteus vulgaris): 0.06 µg/mL (≈ 0.156 µM) | MIC90 (Proteus vulgaris): 0.06 µg/mL (≈ 0.156 µM) | MIC Range (Proteus vulgaris): 0.03 to 0.06 µg/mL | MIC [5]: 0.025 µg/mL (≈ 0.0652 µM) | MIC50 (Haemophilus influenzae): 0.25 µg/mL (≈ 0.652 µM) | MIC90 (Haemophilus influenzae): 1 µg/mL (≈ 2.61 µM) | MIC Range (Haemophilus influenzae): 0.06 to 1 µg/mL | MIC50 (Proteus mirabilis): 0.06 µg/mL (≈ 0.156 µM) | MIC90 (Proteus mirabilis): 0.06 µg/mL (≈ 0.156 µM) | MIC Range (Proteus mirabilis): 0.015 to 0.06 µg/mL
